{"source": "patent EP1304333A2", "about": "“6,7-Oxygenated steroids and uses related thereto” (Inflazyme Pharmaceuticals, Ltd., priority 1996, dated 1998)", "key": {"isolated trachea": {"tested_on": "isolated trachea", "test": "Allergen (OA)-induced contraction of isolated trachea from sensitized guinea pigs", "parameters": "species or system guinea pig", "conditions": "Study 3, 30 µM compound", "protocol": "The effects of a number of the compounds described herein on allergen-induced bronchoconstriction were evaluated for anti-asthma activity. The ability of a compound to inhibit allergen-induced decreases in lung function in sensitized guinea pigs in response to antigen-challenge is indicative of anti-asthma activity. In particular, the model system is useful in the evaluation of the potential effects of a compound in the treatment of the early asthmatic reaction (EAR) when severe bronchoconstriction occurs.\nGuinea pigs were exposed to a nebulized solution of 1% ovalbumin (OA) in saline for 15 min. […] Tracheal rings were prepared and bathed in Krebs-Henseleit solution at 37°C and aerated with 5% CO2 in O2. Tissues were suspended under a resting tension of 2 g and isometric contractions were measured using force-displacement transducers coupled to a polygraph. Tissues were incubated with each compound or 0.1% dimethylsulfoxide (as a control) for 20 min, after which increasing concentrations of OA (0.001 - 100 µg/ml) were added to the tissue. After the final concentration of OA was added and the response was recorded, the tissues were stimulated with 100 µM methacholine which caused maximum contraction of the trachea. The magnitude of the contraction induced by OA in the presence of each compound was expressed as a percentage of the maximum contraction obtained using methacholine (100 µM)."}, "sensitized guinea pigs": {"tested_on": "sensitized guinea pigs", "test": "Allergen-induced changes in lung resistance and lung compliance in vivo", "parameters": "species or system guinea pig", "conditions": "50 µg/kg inhalation", "protocol": "In addition, the effect of compounds of the invention on lung function in vivo was determined in sensitized animals as follows: • Female Cam Hartley guinea pigs (350-400 g) are sensitized to ovalbumin by exposure of the guinea pigs to a nebulized solution of 1% ovalbumin in saline for 15 minutes. After 10-12 days, the animals are found to be acutely sensitized to the allergen (ovalbumin). Animals are treated by oral gavage, under light halothane anesthesia, with 300 µl polyethyleneglycol-200 (PEG) or 5 mg/Kg of test compound in 300 µl of PEG. Animals are treated once daily for 4 days with the final dose administered 2 hours prior to allergen challenge. Alternatively, compounds were delivered by inhalation, using a Hudson nebulizer driven by 6psi oxygen, providing a single dose of 50 µg/Kg 20 min prior to challenge.\nAn animal is anaesthetized using ketamine ([…]; i.p.) and xylazine (10 mg/Kg; i.p.) and 1% halothane during the surgical procedure. A tracheostomy is performed and a water-filled esophageal cannula is inserted prior to positioning the animal in a body plethysmograph. The tracheal cannula is attached to a fixed tracheal cannula in the plethysmograph. Cardiac function is monitored using electrocardiography. The animal is paralyzed using pancuronium bromide (0.8 mg/Kg; i.m.) and ventilated with 3 ml tidal breaths using a Harvard small animal ventilator, at a frequency of 60 breaths per minute. Pulmonary resistance and dynamic lung compliance data are obtained from volume, flow and transpulmonary pressure signals using multipoint analysis.\nPulmonary function is continually monitored throughout the experiment and measurements of lung resistance and lung compliance are made at various time-points (e.g., 0, 1, 2, 3, 4, 5, 10, 20 and 30 min) following antigen challenge. Data is collected on a computer-linked physiological measurement system using DIREC Physiological recording software and analyzed using ANADAT software designed for lung mechanics measurements. This software was obtained from RHT-InfoDat Inc., Montreal, Quebec, Canada.\nOnce baseline resistance and compliance measurements are obtained, the animal is challenged with 6 breaths of saline. After 10 minutes, during which time no alterations in lung function should occur, the animal is challenged with 6 breaths of 2 or 3% ovalbumin in saline (as the antigen stimulus). Saline and antigen are delivered in each breath using a Hudson nebulizer."}, "[1]": {"tested_on": "sensitized Brown Norway rats", "test": "Allergen-induced lung inflammation (inflammatory cells in lung lavage fluid)", "format": "in vivo, rat", "conditions": "5 mg/kg/day for 4 days, p.o.; OA challenge; lavage 48 hours after challenge", "from_the_text": "The ability of a compound to inhibit the allergen-induced accumulation of inflammatory cells such as eosinophils and neutrophils in the lavage fluid obtained from sensitized animals is indicative of anti-asthma activity. In particular, the model system is useful in the evaluation of the effects of compounds in the treatment of the late-phase response of asthma, when lung inflammation and the second phase of bronchoconstriction is apparent.\nMale Brown Norway rats (200-250 g) are sensitized to ovalbumin by an intraperitoneal injection of 1 mg ovalbumin and 100 mg aluminum hydroxide in 1 ml of sterile saline. After 21 days the animals are found to be sensitized to ovalbumin. Animals are treated with drug or vehicle (0.3 ml PEG-200) once daily for 4 days by oral gavage. The animals are challenged by exposure, for a period of 60 minutes, to nebulized solution of 0.5% ovalbumin in saline generated using a Devillbis nebulizer. The final dose of drug is given 24 hours after challenge. Forty eight hours after challenge the animals are euthanized by an overdose of halothane and the lungs are lavaged with 7 x 2 mLs of sterile saline (room temperature). The recovered lavage fluid is placed on ice and centrifuged at 1200 rpm to separate the cells from the supernatant. The cells are exposed briefly to Tris/ammonium chloride, pH 7.3 to remove any red cells, and washed in phosphate buffered saline. Cytospins of each cell sample are prepared and stained for the presence of cells containing peroxidase and for the determination of the numbers of eosinophils and neutrophils. The numbers of inflammatory cells are expressed as a percentage of the total number of cells recovered in the lavage fluid."}, "[2]": {"tested_on": "Ascaris suum sensitized sheep", "test": "Allergic sheep model of asthma (specific lung resistance, hyperresponsiveness to carbachol)", "format": "in vivo", "conditions": "400 µg/kg 30 min prior to and 4 hrs after challenge, inhalation; -0.5 hr", "protocol": "The model is conscious, where the animals are breathing spontaneously, allowing measurement of airways bronchoconstriction and acute airway hyperresponsiveness.\nSheep which were naturally sensitized to Ascaris suum (30-40 Kg) were intubated with an endotracheal tube and a balloon catheter, positioned in the lower esophagus. Pleural pressure was estimated with the esophageal catheter, while later pressure was measured with a side-hole catheter advanced through and positioned distal to the tip of the endotracheal tube. Transpulmonary pressure differences between the trachea and pleural pressures were measured with a differential pressure transducer catheter system.\nThe proximal end of the endotracheal tube was connected to a Fleisch pneumotachograph in order to measure flow changes. Pulmonary resistance (RL) was calculated from pressure measurements of transpulmonary pressure, respiratory volume (from digital integration of the flow signal) and flow by the mid-flow technique. SRL was calculated as RL·Vtg (Vtg=thoracic gas volume).\nAerosols generated using a disposable nebulizer, were directed into a T-piece connected to a Harvard respirator and the tracheal tube in series. […]\nSpecific lung resistance (SRL) was measured every 60 min for 8 hours after antigen challenge. Airways hyperresponsiveness to carbachol was measured 24 hours after the initial challenge."}}, "data": [{"substance": "3α,6α,7β-trihydroxy-17(20)-pregnene [Compound 330]", "values": [{"measurement": "percentage contraction compared to 100µM methacholine (100%)", "setting": "isolated trachea; 0.001 µg/ml OA", "result": 0, "unit": "%"}, {"measurement": "percentage contraction compared to 100µM methacholine (100%)", "setting": "isolated trachea; 0.01 µg/ml OA", "result": 1.90, "unit": "%"}, {"measurement": "percentage contraction compared to 100µM methacholine (100%)", "setting": "isolated trachea; 0.1 µg/ml OA", "result": 9.00, "unit": "%"}, {"measurement": "percentage contraction compared to 100µM methacholine (100%)", "setting": "isolated trachea; 1 µg/ml OA", "result": 17.5, "unit": "%"}, {"measurement": "percentage contraction compared to 100µM methacholine (100%)", "setting": "isolated trachea; 10 µg/ml OA", "result": 26.0, "unit": "%"}, {"measurement": "percentage contraction compared to 100µM methacholine (100%)", "setting": "isolated trachea; 100 µg/ml OA", "result": 30.0, "unit": "%"}, {"measurement": "Lung Compliance", "setting": "sensitized guinea pigs; 1 min after challenge", "result": "0.349±0.059", "unit": "ml/cm H2O"}, {"measurement": "Lung Resistance", "setting": "sensitized guinea pigs; 1 min after challenge", "result": "0.382±0.033", "unit": "cm H2O/ml/sec"}, {"measurement": "Lung Compliance", "setting": "sensitized guinea pigs; 2 min after challenge", "result": "0.213±0.046", "unit": "ml/cm H2O"}, {"measurement": "Lung Resistance", "setting": "sensitized guinea pigs; 2 min after challenge", "result": "0.420±0.044", "unit": "cm H2O/ml/sec"}, {"measurement": "Lung Compliance", "setting": "sensitized guinea pigs; 3 min after challenge", "result": "0.176±0.045", "unit": "ml/cm H2O"}, {"measurement": "Lung Resistance", "setting": "sensitized guinea pigs; 3 min after challenge", "result": "0.420±0.051", "unit": "cm H2O/ml/sec"}, {"measurement": "Lung Compliance", "setting": "sensitized guinea pigs; 4 min after challenge", "result": "0.145±0.046", "unit": "ml/cm H2O"}, {"measurement": "Lung Resistance", "setting": "sensitized guinea pigs; 4 min after challenge", "result": "0.455±0.047", "unit": "cm H2O/ml/sec"}, {"measurement": "Lung Compliance", "setting": "sensitized guinea pigs; 5 min after challenge", "result": "0.146±0.031", "unit": "ml/cm H2O"}, {"measurement": "Lung Resistance", "setting": "sensitized guinea pigs; 5 min after challenge", "result": "0.446±0.124", "unit": "cm H2O/ml/sec"}, {"measurement": "Lung Compliance", "setting": "sensitized guinea pigs; 10 min after challenge", "result": "0.138±0.022", "unit": "ml/cm H2O"}, {"measurement": "Lung Resistance", "setting": "sensitized guinea pigs; 10 min after challenge", "result": "0.436±0.036", "unit": "cm H2O/ml/sec"}, {"measurement": "Lung Compliance", "setting": "sensitized guinea pigs; 20 min after challenge", "result": "0.193±0.054", "unit": "ml/cm H2O"}, {"measurement": "Lung Resistance", "setting": "sensitized guinea pigs; 20 min after challenge", "result": "0.413±0.076", "unit": "cm H2O/ml/sec"}, {"measurement": "Lung Compliance", "setting": "sensitized guinea pigs; 30 min after challenge", "result": "0.181±0.046", "unit": "ml/cm H2O"}, {"measurement": "Lung Resistance", "setting": "sensitized guinea pigs; 30 min after challenge", "result": "0.412±0.072", "unit": "cm H2O/ml/sec"}, {"measurement": "Lung Compliance", "setting": "sensitized guinea pigs; Baseline", "result": "0.463±0.129", "unit": "ml/cm H2O"}, {"measurement": "Lung Resistance", "setting": "sensitized guinea pigs; Baseline", "result": "0.300±0.025", "unit": "cm H2O/ml/sec"}, {"measurement": "Lung Compliance", "setting": "sensitized guinea pigs; OA/10 s", "result": "0.565±0.062", "unit": "ml/cm H2O"}, {"measurement": "Lung Resistance", "setting": "sensitized guinea pigs; OA/10 s", "result": "0.288±0.036", "unit": "cm H2O/ml/sec"}, {"measurement": "Percentage Total Cells Recovered in Lavage Fluid: Cells Stained Positive for Peroxidase", "setting": "[1]", "result": "5.65 ± 2.44", "unit": "%"}, {"measurement": "Percentage Total Cells Recovered in Lavage Fluid: Eosinophils", "setting": "[1]", "result": "1.98 ± 0.78", "unit": "%"}, {"measurement": "Percentage Total Cells Recovered in Lavage Fluid: Neutrophils", "setting": "[1]", "result": "6.16 ± 4.54", "unit": "%"}, {"measurement": "Specific Lung Resistance (% Baseline)", "setting": "[2]", "result": "0±4", "unit": "% Baseline"}]}]}
